Source: publication PMC7368552 (ACS chemical neuroscience, 2018)
Read-outs that look alike come from different tables or passages of the source.

How the values were obtained:
SH-SY5Y cells = experiment: Cytotoxicity assessment in SH-SY5Y cells; type: cell-based, human; settings: 72 h
[1] = Parallel artificial membrane permeability assay; settings: PAMPA; for Papp at 5 h, 20 μM: pH 7.4, PAMPA permeability classification, pH 7.4, 5 h
GSK-3β [2] = molecular target: T1, GSK-3β (Homo sapiens, UniProt P49841); experiment: ADP-Glo kinase luminescent assay, GSK-3β inhibition; type: biochemical; settings: for Ligand-lipophilic efficiency (LiPE): LiPE = pIC50 – CLogP
T1 sequence (P49841 whole entry): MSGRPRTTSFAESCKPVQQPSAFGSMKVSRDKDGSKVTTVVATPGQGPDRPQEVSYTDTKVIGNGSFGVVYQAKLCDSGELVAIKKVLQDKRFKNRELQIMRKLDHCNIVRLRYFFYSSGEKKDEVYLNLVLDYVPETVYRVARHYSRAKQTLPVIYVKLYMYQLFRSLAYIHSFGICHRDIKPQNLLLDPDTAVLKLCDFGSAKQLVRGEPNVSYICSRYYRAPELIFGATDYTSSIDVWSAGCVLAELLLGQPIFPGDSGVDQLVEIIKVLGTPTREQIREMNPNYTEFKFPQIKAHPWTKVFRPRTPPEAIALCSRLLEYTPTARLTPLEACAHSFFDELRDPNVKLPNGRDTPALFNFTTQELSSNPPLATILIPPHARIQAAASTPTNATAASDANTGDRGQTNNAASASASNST

GSK-3β [3] = molecular target: T1, GSK-3β; experiment: GSK-3β kinetic studies; type: biochemical; settings: 30 0 to 5 μM
[4] = tested on: Aβ42 induced neurotoxicity in SH-SY5Y cells; experiment: Anti-Aβ42 neurotoxicity assay in SH-SY5Y cells; type: cell-based, human
[5] = tested on: GSK-3β mediated tau phosphorylation at pS396; experiment: SH-SY5Y whole-cell lysate GSK-3β assay with human tau pS396 ELISA; type: biochemical; settings: for effect on GSK-3β mediated tau hyperphosphorylation (pS396): 2, 10 and 50 μM, 2 h, 37 °C, lysate fortified with 0.25% GSK-3β, ELISA
[6] = tested on: panel of 41 human protein kinases; experiment: Kinase selectivity screening, panel of 41 human protein kinases; type: biochemical; settings: 5 μM
[7] = tested on: Aβ42 induced neurotoxicity in SH-SY5Y cells; settings: cited from earlier work
GSK-3β [8] = settings: read-out: GSK-3β inhibition IC50; cited from earlier work

## COc1ccc(-c2cc(=O)c3c(OC)c([C@@H]4O[C@H](C(=O)N[C@@H](C)C(F)(F)F)[C@@H](O)[C@H](O)[C@H]4O)c(OC)cc3o2)cc1OC [compound 30, (2S,3S,4R,5R,6S)-6-(2-(3,4-Dimethoxyphenyl)-5,7-dimethoxy-4-oxo-4H-chromen-6-yl)-3,4,5-trihydroxy-N-((S)-1,1,1-trifluoropropan-2-yl)tetrahydro-2H-pyran-2-carboxamide]
SH-SY5Y cells
  dose with no observable cytotoxicity: ≤ 1000 µM
[1]; pH 7.4
  recovery at 5 h, 20 μM: 30%
[1]
  Papp at 5 h, 20 μM: > 1.5 ×10⁻⁶ cm/s
GSK-3β [2]; 5 μM, ratio of % inhibition
  selectivity to GSK-3β versus GSK-3α: 12.3 fold
GSK-3β [2]; 30 compared to 9
  fold increased potency against GSK-3β compared to 9: approximately 9 fold
GSK-3β [2]; 30 compared to 31
  fold more potent against GSK-3β than epimer 31: about 4 fold
GSK-3β [3]; ATP 10 μM, GS2 8 to 66 μM
  inhibition mode with respect to substrate GS2: competed with the substrate GS2
GSK-3β [3]; GS2 17 μM, ATP 2 to 50 μM
  inhibition mode with respect to ATP: no competition between ATP and 30
[4]; pretreatment 1.25 to 20 μM for 1 h, then 10 μM Aβ42 for 72 h, dose-dependent
  cell viability recovered (from 40% with Aβ42 alone): 100%
[4]; pretreatment, 10 μM Aβ42, 72 h
  effective dose protecting SH-SY5Y cells from Aβ42 (morphology): 10 μM
[5]; 10 μM, TDZD-8 at the same concentration
  anti-tau effect relative to TDZD-8: comparable to TDZD-8
[5]
  effect on GSK-3β mediated tau hyperphosphorylation (pS396): effectively attenuated tau hyperphosphorylation in a dose-dependent manner
[6]
  inhibition of 40 out of 41 kinases in the test panel: marginal or weak inhibition

## O=c1cc(-c2ccc(O)c(O)c2)oc2cc(O)c([C@@H]3O[C@H](CO)[C@@H](O)[C@H](O)[C@H]3O)c(O)c12 [compound 1, isoorientin]
[7]
  effective dose protecting SH-SY5Y cells from Aβ42 (morphology): 200 μM
[7]; read-out: neuroprotective potency, EC50, parent compound
  EC50: 47 µM

## COc1ccc(-c2cc(=O)c3c(OC)c([C@@H]4O[C@H](C(=O)NCc5ccccc5)[C@@H](O)[C@H](O)[C@H]4O)c(OC)cc3o2)cc1OC [compound 21, (2S,3S,4R,5R,6S)-6-(2-(3,4-Dimethoxyphenyl)-5,7-dimethoxy-4-oxo-4H-chromen-6-yl)-3,4,5-trihydroxy-N-benzyltetrahydro-2H-pyran-2-carboxamide]
[1]
  Papp at 5 h, 20 μM: 1 to 1.5 ×10⁻⁶ cm/s
[5]
  effect on GSK-3β mediated tau hyperphosphorylation (pS396): effectively attenuated tau hyperphosphorylation in a dose-dependent manner

## O=C([O-])[O-].[Li+].[Li+] [Lithium carbonate, lithium carbonate]
GSK-3β [8]
  IC50: 2000 µM

## COc1ccc(-c2cc(=O)c3c(OC)c([C@@H]4O[C@H](C(=O)NC5CCCCC5)[C@@H](O)[C@H](O)[C@H]4O)c(OC)cc3o2)cc1OC [compound 17, (2S,3S,4R,5R,6S)-N-Cyclohexyl-6-(2-(3,4-dimethoxyphenyl)-5,7-dimethoxy-4-oxo-4H-chromen-6-yl)-3,4,5-trihydroxytetrahydro-2H-pyran-2-carboxamide]
[1]
  Papp at 5 h, 20 μM: > 1.5 ×10⁻⁶ cm/s
[5]
  effect on GSK-3β mediated tau hyperphosphorylation (pS396): effectively attenuated tau hyperphosphorylation in a dose-dependent manner

## O=c1cc(-c2ccc(O)c(O)c2)oc2c([C@@H]3O[C@H](CO)[C@@H](O)[C@H](O)[C@H]3O)c(O)cc(O)c12 [compound 3, orientin, reference compound]
GSK-3β [2]; GSK-3β inhibition, IC50, as stated in text
  IC50: > 5000 µM

## COc1ccc(-c2cc(=O)c3c(OC)c([C@@H]4O[C@H](C(=O)N[C@H](C)C(F)(F)F)[C@@H](O)[C@H](O)[C@H]4O)c(OC)cc3o2)cc1OC [compound 31, (2S,3S,4R,5R,6S)-6-(2-(3,4-Dimethoxyphenyl)-5,7-dimethoxy-4-oxo-4H-chromen-6-yl)-3,4,5-trihydroxy-N-((R)-1,1,1-trifluoropropan-2-yl)tetrahydro-2H-pyran-2-carboxamide]
GSK-3β [2]
  Ligand-lipophilic efficiency (LiPE): ≥ 4

## COc1ccc(-c2cc(=O)c3c(OC)c([C@@H]4O[C@H](C(=O)NC(C)C)[C@@H](O)[C@H](O)[C@H]4O)c(OC)cc3o2)cc1OC [compound 9, (2S,3S,4R,5R,6S)-6-(2-(3,4-Dimethoxyphenyl)-5,7-dimethoxy-4-oxo-4H-chromen-6-yl)-3,4,5-trihydroxy-N-isopropyltetrahydro-2H-pyran-2-carboxamide]
[1]
  Papp at 5 h, 20 μM: > 1.5 ×10⁻⁶ cm/s
GSK-3β [2]
  Ligand-lipophilic efficiency (LiPE): ≥ 4
[5]
  effect on GSK-3β mediated tau hyperphosphorylation (pS396): effectively attenuated tau hyperphosphorylation in a dose-dependent manner

## COC(=O)[C@H]1O[C@@H](c2c(OC)cc3oc(-c4ccc(OC)c(OC)c4)cc(=O)c3c2OC)[C@H](O)[C@@H](O)[C@@H]1O [compound 7, Methyl (2S,3S,4R,5R,6S)-6-(2-(3,4-Dimethoxyphenyl)-5,7-dimethoxy-4-oxo-4H-chromen-6-yl)-3,4,5-trihydroxytetrahydro-2H-pyran-2-carboxylate]
GSK-3β [2]; ratio of IC50 values relative to isoorientin 1
  fold increase of potency against GSK-3β in comparison with 1: 1.37 fold
